Measured values as given in article PMC6599250, “Functional diversity of inhibitors tackling the differentiation blockage of MLL-rearranged leukemia” (Journal of Hematology & Oncology, 2019).
Where two headings read alike, the source gives them in different places.

Assays:
HL-60 (MLL-WT) cells = assay: Cell proliferation (alamarBlue) HL-60; format: cell-based; conditions: for IC50: Homo sapiens, HL-60 (MLL-WT), read-out: IC50 proliferation
Protocol: (§1) Cells were seeded in the optimal growth medium at 4000–5000 cells/well in a 96 MTP and cultured 18–24 h before inhibitor treatment.

Jurkat (MLL-WT) cells = assay: Cell proliferation (alamarBlue) Jurkat; format: cell-based; conditions: Homo sapiens, Jurkat (MLL-WT)
Protocol: as §1

OCI-AML-5 (MLL-WT) cells = assay: Cell proliferation (alamarBlue) OCI-AML-5; format: cell-based; conditions: Homo sapiens, OCI-AML-5, OCI-AML-5 (MLL-WT), read-out: IC50 proliferation
Protocol: as §1

OCI-AML-3 (MLL-WT) cells = assay: Cell proliferation (alamarBlue) OCI-AML-3; format: cell-based; conditions: Homo sapiens, OCI-AML-3, OCI-AML-3 (MLL-WT), read-out: IC50 proliferation
Protocol: as §1

MV4-11 (MLL-AF4) cells = assay: Cell proliferation (alamarBlue) MV4-11; format: cell-based; conditions: Homo sapiens, MV4-11, MV4-11 (MLL-AF4), read-out: IC50 proliferation
Protocol: as §1

RS4;11 (MLL-AF4) cells = assay: Cell proliferation (alamarBlue) RS4;11; format: cell-based; conditions: Homo sapiens, RS4-11, RS4;11 (MLL-AF4), read-out: IC50 proliferation
Protocol: as §1

SEM (MLL-AF4) cells = assay: Cell proliferation (alamarBlue) SEM; format: cell-based; conditions: SEM (MLL-AF4), read-out: IC50 proliferation
Protocol: as §1

ML-2 (MLL-AF6) cells = assay: Cell proliferation (alamarBlue) ML-2; format: cell-based; conditions: ML-2 (MLL-AF6), read-out: IC50 proliferation
Protocol: as §1

MOLM-13 (MLL-AF9) cells = assay: Cell proliferation (alamarBlue) MOLM-13; format: cell-based; conditions: Homo sapiens, MOLM-13, MOLM-13 (MLL-AF9), read-out: IC50 proliferation
Protocol: as §1

MOLM-14 (MLL-AF9) cells = assay: Cell proliferation (alamarBlue) MOLM-14; format: cell-based; conditions: Homo sapiens, MOLM-14, MOLM-14 (MLL-AF9), read-out: IC50 proliferation
Protocol: as §1

NOMO-1 (MLL-AF9) cells = assay: Cell proliferation (alamarBlue) NOMO-1; format: cell-based; conditions: Homo sapiens, NOMO-1, NOMO-1 (MLL-AF9), read-out: IC50 proliferation
Protocol: as §1

[1] = tested on: OCI-AML-2 (MLL-AF9) cells; assay: Cell proliferation (alamarBlue) OCI-AML-2; format: cell-based; conditions: Homo sapiens, OCI-AML2, OCI-AML-2 (MLL-AF9), read-out: IC50 proliferation
Protocol: as §1

KOPN-8 (MLL-ENL) cells = assay: Cell proliferation (alamarBlue) KOPN-8; format: cell-based; conditions: Homo sapiens, KOPN-8, KOPN-8 (MLL-ENL), read-out: IC50 proliferation
Protocol: as §1

EOL-1 (MLL-TD) cells = assay: Cell proliferation (alamarBlue) EOL-1; format: cell-based; conditions: Homo sapiens, EOL1, EOL-1 (MLL-TD), read-out: IC50 proliferation
Protocol: as §1

[2] = tested on: MLL-fused cell lines (MV4-11, MOLM-13); assay: Cell proliferation, MLL-fused cell lines; format: cell-based; conditions: 4 days of treatment (Fig. 1a), DMSO = 100%
Protocol: (§2) Cells were seeded in the optimal growth medium at 4000–5000 cells/well in a 96 MTP and cultured 18–24 h before inhibitor treatment. Upon treatment with the indicated inhibitor, cells were cultured for 24 h, 96 h, and 168 h and effects on proliferation were determined using alamarBlue Cell Viability Reagent (Thermo Fisher Scientific, Waltham, MA, USA).

[3] = tested on: selected MLL-fused models; assay: Cell proliferation, AML/ALL panel; format: cell-based; conditions: specifically in selected MLL-fused models (Fig. 2a); read-out: proliferation IC50 (significant effects)
Protocol: as §1

[4] = tested on: MLL-fused cell lines (MV4-11, MOLM-13); assay: CD11b protein expression by flow cytometry, MLL-fused lines; format: cell-based; conditions: 4 and 7 days of treatment
Protocol: (§3) Four thousand cells per well were seeded 24 h before they were treated with the indicated inhibitor in a 96 MTP. After 4 or 7 days of treatment, cells were washed with PBS and stained with CD11b - APC (BioLegend, San Diego, California, USA) and DAPI (Thermo Fisher Scientific, Waltham, Massachusetts, USA) or AnnexinV – FITC (BioLegend, San Diego, California, USA) and PI solution (Sigma-Aldrich St. Louis, Missouri, USA) using the FACS Canto II (BD Biosciences, Heidelberg, Germany) and data was analyzed with FACSDiva software.

HL-60 cells = assay: CD11b protein expression by flow cytometry, HL-60; format: cell-based; conditions: non-fused HL-60 cell line, 4 and 7 days of treatment
Protocol: as §3

[5] = tested on: MV4-11, MOLM-13 and HL-60 cells; assay: Cell cycle analysis (PI, flow cytometry); format: cell-based; conditions: 4 days of treatment (Figure S2)
Protocol: Cells were washed with PBS and fixed overnight at − 20 °C with 70% ethanol. Fixed cells were stained with PI solution (Sigma-Aldrich St. Louis, MO, USA) solution containing RNase A (Qiagen, Hilden, Germany). Fluorescence was measured with FACS Canto II (BD Biosciences, Heidelberg, Germany) flow cytometer and data was analyzed with FACSDiva software.

[6] = tested on: MV4-11, MOLM-13 and HL-60 cells; assay: Cell proliferation, all three tested AML cell lines; format: cell-based; conditions: 96 h; all tested cell lines (MV4-11, MOLM-13, HL-60), 4 days of treatment (Fig. 1a); read-out: anti-proliferation IC50s
Protocol: as §2

BRD4/2/3 = conditions: read-out: On target Potency EC50; cited from earlier work
[7] = 168 h, 7 days of treatment (D7)
[8] = D1, read-out: IC50 proliferation
[9] = D4, read-out: IC50 proliferation
[10] = D7, read-out: IC50 proliferation

CC(C)N(C[C@H]1O[C@@H](n2cnc3c(N)ncnc32)[C@H](O)[C@@H]1O)[C@H]1C[C@@H](CCc2nc3cc(C(C)(C)C)ccc3[nH]2)C1 [EPZ-5676]
anti-proliferation effect in non-fused HL-60 (HL-60 (MLL-WT) cells; HL-60, 4 days of treatment (Fig. 1a)): no significant effects
IC50 (HL-60 (MLL-WT) cells; 24 h, 1 day of treatment (D1)): > 10000 nM
IC50 (HL-60 (MLL-WT) cells; 96 h, 4 days of treatment (D4)): > 10000 nM
IC50 (HL-60 (MLL-WT) cells; [7]): > 10000 nM
IC50 (Jurkat (MLL-WT) cells; [8]): > 10000 nM
IC50 (Jurkat (MLL-WT) cells; [9]): > 10000 nM
IC50 (Jurkat (MLL-WT) cells; [10]): > 10000 nM
IC50 (OCI-AML-5 (MLL-WT) cells; D1): > 10000 nM
IC50 (OCI-AML-5 (MLL-WT) cells; D4): > 10000 nM
IC50 (OCI-AML-5 (MLL-WT) cells; D7): > 10000 nM
IC50 (OCI-AML-3 (MLL-WT) cells; D1): > 10000 nM
IC50 (OCI-AML-3 (MLL-WT) cells; D4): > 10000 nM
IC50 (OCI-AML-3 (MLL-WT) cells; D7): > 10000 nM
IC50 (MV4-11 (MLL-AF4) cells; D1): > 10000 nM
IC50 (MV4-11 (MLL-AF4) cells; D4): 250 nM
IC50 (MV4-11 (MLL-AF4) cells; D7): 280 nM
IC50 (RS4;11 (MLL-AF4) cells; D1): > 10000 nM
IC50 (RS4;11 (MLL-AF4) cells; D4): > 10000 nM
IC50 (RS4;11 (MLL-AF4) cells; D7): > 10000 nM
IC50 (SEM (MLL-AF4) cells; D1): > 10000 nM
IC50 (SEM (MLL-AF4) cells; D4): > 10000 nM
IC50 (SEM (MLL-AF4) cells; D7): > 10000 nM
IC50 (ML-2 (MLL-AF6) cells; D1): > 10000 nM
IC50 (ML-2 (MLL-AF6) cells; D4): > 10000 nM
IC50 (ML-2 (MLL-AF6) cells; D7): > 10000 nM
IC50 (MOLM-13 (MLL-AF9) cells; D1): > 10000 nM
IC50 (MOLM-13 (MLL-AF9) cells; D4): > 10000 nM
IC50 (MOLM-13 (MLL-AF9) cells; D7): 6570 nM
IC50 (MOLM-14 (MLL-AF9) cells; D1): > 10000 nM
IC50 (MOLM-14 (MLL-AF9) cells; D4): 140 nM
IC50 (MOLM-14 (MLL-AF9) cells; D7): 120 nM
IC50 (NOMO-1 (MLL-AF9) cells; D1): > 10000 nM
IC50 (NOMO-1 (MLL-AF9) cells; D4): > 10000 nM
IC50 (NOMO-1 (MLL-AF9) cells; D7): 150 nM
IC50 ([1]; D1): > 10000 nM
IC50 ([1]; D4): > 10000 nM
IC50 ([1]; D7): > 10000 nM
IC50 (KOPN-8 (MLL-ENL) cells; D1): > 10000 nM
IC50 (KOPN-8 (MLL-ENL) cells; D4): > 10000 nM
IC50 (KOPN-8 (MLL-ENL) cells; D7): > 10000 nM
IC50 (EOL-1 (MLL-TD) cells; D1): > 10000 nM
IC50 (EOL-1 (MLL-TD) cells; D4): > 10000 nM
IC50 (EOL-1 (MLL-TD) cells; D7): 120 nM
proliferation inhibited to [2]: 40–50%
IC50 [3]: < 1000 nM
CD11b protein level [4]: increased CD11b protein level in a dose and time-dependent manner
CD11b level (HL-60 cells): did not increase CD11b level
cell cycle effect [5]: decrease of cells in S and G2/M phase with increasing concentrations

Cc1sc2c(c1C)C(c1ccc(Cl)cc1)=N[C@@H](CC(=O)Nc1ccc(O)cc1)c1nnc(C)n1-2 [OTX015]
IC50 (HL-60 (MLL-WT) cells; 24 h, 1 day of treatment (D1)): > 10000 nM
IC50 (HL-60 (MLL-WT) cells; 96 h, 4 days of treatment (D4)): 70 nM
IC50 (HL-60 (MLL-WT) cells; [7]): 270 nM
IC50 (Jurkat (MLL-WT) cells; [8]): > 10000 nM
IC50 (Jurkat (MLL-WT) cells; [9]): 100 nM
IC50 (Jurkat (MLL-WT) cells; [10]): 170 nM
IC50 (OCI-AML-5 (MLL-WT) cells; D1): > 10000 nM
IC50 (OCI-AML-5 (MLL-WT) cells; D4): 70 nM
IC50 (OCI-AML-5 (MLL-WT) cells; D7): 80 nM
IC50 (OCI-AML-3 (MLL-WT) cells; D1): > 10000 nM
IC50 (OCI-AML-3 (MLL-WT) cells; D4): 40 nM
IC50 (OCI-AML-3 (MLL-WT) cells; D7): 70 nM
IC50 (MV4-11 (MLL-AF4) cells; D1): > 10000 nM
IC50 (MV4-11 (MLL-AF4) cells; D4): 140 nM
IC50 (MV4-11 (MLL-AF4) cells; D7): 180 nM
IC50 (RS4;11 (MLL-AF4) cells; D1): > 10000 nM
IC50 (RS4;11 (MLL-AF4) cells; D4): 170 nM
IC50 (RS4;11 (MLL-AF4) cells; D7): 150 nM
IC50 (SEM (MLL-AF4) cells; D1): > 10000 nM
IC50 (SEM (MLL-AF4) cells; D4): 70 nM
IC50 (SEM (MLL-AF4) cells; D7): 80 nM
IC50 (ML-2 (MLL-AF6) cells; D1): > 10000 nM
IC50 (ML-2 (MLL-AF6) cells; D4): 390 nM
IC50 (ML-2 (MLL-AF6) cells; D7): 180 nM
IC50 (MOLM-13 (MLL-AF9) cells; D1): > 10000 nM
IC50 (MOLM-13 (MLL-AF9) cells; D4): 30 nM
IC50 (MOLM-13 (MLL-AF9) cells; D7): 110 nM
IC50 (MOLM-14 (MLL-AF9) cells; D1): > 10000 nM
IC50 (MOLM-14 (MLL-AF9) cells; D4): 40 nM
IC50 (MOLM-14 (MLL-AF9) cells; D7): 60 nM
IC50 (NOMO-1 (MLL-AF9) cells; D1): > 10000 nM
IC50 (NOMO-1 (MLL-AF9) cells; D4): 10 nM
IC50 (NOMO-1 (MLL-AF9) cells; D7): 10 nM
IC50 ([1]; D1): > 10000 nM
IC50 ([1]; D7): 80 nM
IC50 (KOPN-8 (MLL-ENL) cells; D1): > 10000 nM
IC50 (KOPN-8 (MLL-ENL) cells; D4): 300 nM
IC50 (KOPN-8 (MLL-ENL) cells; D7): 320 nM
IC50 (EOL-1 (MLL-TD) cells; D1): > 10000 nM
IC50 (EOL-1 (MLL-TD) cells; D4): 30 nM
IC50 (EOL-1 (MLL-TD) cells; D7): 40 nM
IC50 [6]: 30 to 140 nM
CD11b protein level [4]: increased CD11b protein level in a dose and time-dependent manner
CD11b level (HL-60 cells): treatment did
cell cycle effect [5]: decrease of cells in S and G2/M phase with increasing concentrations
EC50 (BRD4/2/3): 10 to 19 nM
